{
  "source": "ChEMBL document CHEMBL2016549",
  "about": "“Bioconversion of silybin to phase I and II microbial metabolites with retained antioxidant activity” (Bioorg Med Chem, 2012)",
  "data": [
    {"system": "Radical scavenging activity", "assay": "Antioxidant activity assessed as DPPH radical scavenging activity by densitometric analysis relative to ascorbic acid", "format": "functional", "units": {"Activity": "%"}, "values": [
      {"smiles": "COc1cc(C2Oc3cc([C@H]4Oc5c(O)c(O)cc(O)c5C(=O)[C@@H]4O)ccc3OC2CO)ccc1O", "note": "(mixture of isomers)", "Activity": 25}
    ]},
    {"system": "Radical scavenging activity", "assay": "Antioxidant activity assessed as DPPH radical scavenging activity by densitometric analysis", "format": "functional", "units": {"IC50": "µM"}, "values": [
      {"smiles": "COc1cc(C2Oc3cc([C@H]4Oc5c(O)c(O)cc(O)c5C(=O)[C@@H]4O)ccc3OC2CO)ccc1O", "note": "(mixture of isomers)", "IC50": 30.3},
      {"smiles": "COc1cc(C2Oc3cc([C@H]4Oc5cc(OS(=O)(=O)O)cc(O)c5C(=O)[C@@H]4O)ccc3OC2CO)ccc1O", "note": "(mixture of isomers)", "IC50": 831},
      {"smiles": "COc1cc(C2Oc3cc(-c4oc5cc(OS(=O)(=O)O)cc(O)c5c(=O)c4O)ccc3OC2CO)ccc1O", "note": "(mixture of isomers)", "IC50": 99.7},
      {"smiles": "COc1cc(C2Oc3cc([C@H]4Oc5cc(O)cc(O)c5C(=O)[C@@H]4O)ccc3OC2CO)ccc1O", "note": "(mixture of isomers) [SILIBININ]", "IC50": 284},
      {"smiles": "O=C1O[C@H]([C@@H](O)CO)C(O)=C1O", "note": "[ASCORBIC ACID]", "IC50": 7.7}
    ]}
  ]
}
